Measured values published in US9321745B2, “Inhibition of neovascularization by inhibition of prostanoid IP receptors” (ALLERGAN, INC., priority 2013, dated 2016).

How the values were obtained:
[1] = system: laser-induced choroidal neovascularization (CNV); assay: Laser-induced model of choroidal neovascularization (CNV); type: in vivo
Method: A laser-induced model of CNV was employed, as known in the art, to determine whether blockade of IP receptors alone is sufficient to inhibit CNV. See e.g., Francois et al., 1975, Am. J. Ophthalmol. 79:206-210; Edelman & Castro, 2000, Exp. Eye Res. 71:523-533; Goody, R. J., et al., 2011, Exp. Eye. Research 92:464-472. Test rats were administered laser treatment after which vehicle (50% propylene glycol in H2O) or IP receptor antagonist Formula II was administered. The area of subsequently identified CNV was quantified by methods known in the art. […] Moreover, as depicted in FIG. 2C, the area of CNV was reduced on a per lesion basis.

[2] = molecular target: T1, IP receptor (Homo sapiens, UniProt P43119); assay: Inhibition of 100 nM cicaprost-induced VEGF secretion in TNFα-stimulated human macrophages; type: cell-based; conditions: TNFα-stimulated human macrophages from two individual donors, FIG. 1B
T1 construct: endogenous in cells; host or cells: TNFα-stimulated human macrophages from individual donors
Excerpt: (§1) A TNFα-stimulated human macrophage system was employed, as known in the art, to assess the effect of IP receptor agonist and IP receptor antagonist on induction of VEGF secretion.
In order to test whether a IP receptor antagonist can reverse the effect of cicaprost-induced VEGF secretion in TNFα-stimulated human macrophages, the IP receptor antagonist Formula I was employed.

[3] = molecular target: T1, IP receptor; assay: Cicaprost-induced VEGF secretion in TNFα-stimulated human macrophages; type: cell-based; conditions: FIG. 1A
Excerpt: as §1

T1 sequence (P43119 whole entry): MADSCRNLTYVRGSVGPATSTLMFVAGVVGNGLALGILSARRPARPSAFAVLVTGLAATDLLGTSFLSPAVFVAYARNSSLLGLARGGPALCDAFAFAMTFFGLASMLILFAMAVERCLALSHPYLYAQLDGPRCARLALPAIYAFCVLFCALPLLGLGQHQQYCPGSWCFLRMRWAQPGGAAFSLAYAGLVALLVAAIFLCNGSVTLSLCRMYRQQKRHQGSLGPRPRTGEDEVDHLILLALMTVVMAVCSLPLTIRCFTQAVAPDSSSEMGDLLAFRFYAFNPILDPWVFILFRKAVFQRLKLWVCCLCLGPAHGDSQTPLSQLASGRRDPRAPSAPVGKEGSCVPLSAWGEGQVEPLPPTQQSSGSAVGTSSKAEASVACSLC

Q: How did the “area of CNV per test subject (rat vs. rat)” value ([1]; after laser treatment, vs vehicle 50% propylene glycol in H2O, n=6, FIG. 2A) turn out when `O=C(N[C@@H](Cc1ccc(F)cc1)C(=O)O)OCc1cc2cc(-c3cccc(F)c3)ccc2o1` [Formula II] was run?
A: significantly reduced

Q: And the “area of CNV, comparison of each eye (eye vs. eye)” value ([1]; rat, after laser treatment, vs vehicle, n=12, FIG. 2B)?
A: reduced

Q: And the “area of CNV on a per lesion basis (lesion vs. lesion)” value ([1]; rat, after laser treatment, vs vehicle, n=38, FIG. 2C)?
A: reduced

Q: What about the “inhibition of laser-induced choroidal neovascularization (CNV)” value ([1]; rat, FIG. 2 overall, vs vehicle 50% propylene glycol in H20) of the same molecule?
A: sufficient to inhibit laser-induced choroidal neovascularization

Q: For `CC(C)Oc1ccc(Cc2ccc(NC3=NCCN3)cc2)cc1` [Formula I], which “inhibition of cicaprost-induced VEGF secretion” value [2] is on record?
A: dose dependently inhibits

Q: `CCC#CC[C@H](C)[C@H](O)C#C[C@@H]1[C@H]2C/C(=C/COCC(=O)O)C[C@H]2C[C@H]1O` [cicaprost] was tested. Which “induction of VEGF secretion” value [3] did it give?
A: dose dependently induces VEGF secretion
